In ChEMBL document CHEMBL5465560, “Selectivity Literature for EUbOPEN Chemogenomic Library” (2024):

Columns and labels:
[1] = target: Macrophage-stimulating protein receptor (Homo sapiens, UniProt Q04912); test: Selectivity interaction (KinomeScan (DiscoverX)) EUB0000092b MST1R; settings: at 10 µM
[2] = target: T1, cGMP-dependent protein kinase 2 (Homo sapiens) (UniProt Q13237); test: Selectivity interaction (KinomeScan (DiscoverX)) EUB0000655a PRKG2; settings: at 10 µM
T1 sequence (whole entry): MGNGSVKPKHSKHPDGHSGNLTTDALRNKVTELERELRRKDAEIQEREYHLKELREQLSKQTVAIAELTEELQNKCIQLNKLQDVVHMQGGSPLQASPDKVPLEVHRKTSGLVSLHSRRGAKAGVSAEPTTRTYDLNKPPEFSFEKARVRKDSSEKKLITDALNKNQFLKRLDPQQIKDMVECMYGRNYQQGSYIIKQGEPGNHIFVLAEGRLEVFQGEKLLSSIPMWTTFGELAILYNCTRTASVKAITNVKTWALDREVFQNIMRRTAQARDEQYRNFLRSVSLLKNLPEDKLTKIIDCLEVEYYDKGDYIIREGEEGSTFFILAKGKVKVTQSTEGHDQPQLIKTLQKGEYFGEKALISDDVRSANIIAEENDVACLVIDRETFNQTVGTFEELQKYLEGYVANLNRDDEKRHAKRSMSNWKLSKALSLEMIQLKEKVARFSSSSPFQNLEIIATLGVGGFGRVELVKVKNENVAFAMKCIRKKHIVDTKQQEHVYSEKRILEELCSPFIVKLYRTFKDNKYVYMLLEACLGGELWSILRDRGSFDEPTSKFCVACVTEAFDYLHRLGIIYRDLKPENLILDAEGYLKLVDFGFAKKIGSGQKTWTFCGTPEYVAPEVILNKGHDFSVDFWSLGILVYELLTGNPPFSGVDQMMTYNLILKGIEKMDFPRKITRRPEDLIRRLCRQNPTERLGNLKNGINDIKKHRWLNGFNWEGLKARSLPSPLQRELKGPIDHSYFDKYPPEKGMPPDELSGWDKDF

[3] = target: Serine/threonine-protein kinase pim-1 (Homo sapiens, UniProt P11309); test: Selectivity interaction (ProQinase) EUB0000171b PIM1
[4] = target: Platelet-derived growth factor receptor alpha (Homo sapiens, UniProt P16234); test: Selectivity interaction (Kinase panel (Invitrogen)) EUB0000639a PDGFRA; settings: at 200 nM
[5] = target: Serine/threonine-protein kinase pim-3 (Homo sapiens) (UniProt Q86V86); test: Selectivity interaction (KinomeScan (DiscoverX)) EUB0000607a PIM3; settings: at 10 µM
[6] = target: T2, Testis-specific serine/threonine-protein kinase 1 (Homo sapiens) (UniProt Q9BXA7); test: Selectivity interaction (KinomeScan (DiscoverX)) EUB0000607a TSSK1A; settings: at 10 µM
T2 sequence (whole entry): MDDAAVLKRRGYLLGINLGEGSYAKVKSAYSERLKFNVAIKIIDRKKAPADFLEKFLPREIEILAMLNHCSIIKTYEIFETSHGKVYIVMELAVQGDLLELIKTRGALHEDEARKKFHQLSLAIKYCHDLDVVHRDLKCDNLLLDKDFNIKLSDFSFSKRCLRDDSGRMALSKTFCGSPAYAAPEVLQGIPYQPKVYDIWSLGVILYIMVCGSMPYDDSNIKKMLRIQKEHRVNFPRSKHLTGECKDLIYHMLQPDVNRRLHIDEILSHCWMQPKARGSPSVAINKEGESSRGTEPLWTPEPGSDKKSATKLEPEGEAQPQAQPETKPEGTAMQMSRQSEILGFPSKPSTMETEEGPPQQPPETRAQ

[7] = target: Casein kinase II subunit alpha' (Homo sapiens) (UniProt P19784); test: Selectivity interaction (KinomeScan (DiscoverX)) EUB0001049a CSNK2A2; settings: at 1 µM
[8] = target: Phosphatidylinositol 4,5-bisphosphate 3-kinase catalytic subunit gamma isoform (Homo sapiens) (UniProt P48736); test: Selectivity interaction (KinomeScan (DiscoverX)) EUB0001049a PIK3CG; settings: at 1 µM
[9] = target: Cyclin-dependent kinase 18 (Homo sapiens) (UniProt Q07002); test: Selectivity interaction (KinomeScan (DiscoverX)) EUB0000695a CDK18; settings: at 100 nM
[10] = target: T3, Tyrosine-protein kinase Mer (Homo sapiens) (UniProt Q12866); test: Selectivity interaction (KinomeScan (DiscoverX)) EUB0000595a MERTK; settings: at 10 µM
T3 sequence (whole entry): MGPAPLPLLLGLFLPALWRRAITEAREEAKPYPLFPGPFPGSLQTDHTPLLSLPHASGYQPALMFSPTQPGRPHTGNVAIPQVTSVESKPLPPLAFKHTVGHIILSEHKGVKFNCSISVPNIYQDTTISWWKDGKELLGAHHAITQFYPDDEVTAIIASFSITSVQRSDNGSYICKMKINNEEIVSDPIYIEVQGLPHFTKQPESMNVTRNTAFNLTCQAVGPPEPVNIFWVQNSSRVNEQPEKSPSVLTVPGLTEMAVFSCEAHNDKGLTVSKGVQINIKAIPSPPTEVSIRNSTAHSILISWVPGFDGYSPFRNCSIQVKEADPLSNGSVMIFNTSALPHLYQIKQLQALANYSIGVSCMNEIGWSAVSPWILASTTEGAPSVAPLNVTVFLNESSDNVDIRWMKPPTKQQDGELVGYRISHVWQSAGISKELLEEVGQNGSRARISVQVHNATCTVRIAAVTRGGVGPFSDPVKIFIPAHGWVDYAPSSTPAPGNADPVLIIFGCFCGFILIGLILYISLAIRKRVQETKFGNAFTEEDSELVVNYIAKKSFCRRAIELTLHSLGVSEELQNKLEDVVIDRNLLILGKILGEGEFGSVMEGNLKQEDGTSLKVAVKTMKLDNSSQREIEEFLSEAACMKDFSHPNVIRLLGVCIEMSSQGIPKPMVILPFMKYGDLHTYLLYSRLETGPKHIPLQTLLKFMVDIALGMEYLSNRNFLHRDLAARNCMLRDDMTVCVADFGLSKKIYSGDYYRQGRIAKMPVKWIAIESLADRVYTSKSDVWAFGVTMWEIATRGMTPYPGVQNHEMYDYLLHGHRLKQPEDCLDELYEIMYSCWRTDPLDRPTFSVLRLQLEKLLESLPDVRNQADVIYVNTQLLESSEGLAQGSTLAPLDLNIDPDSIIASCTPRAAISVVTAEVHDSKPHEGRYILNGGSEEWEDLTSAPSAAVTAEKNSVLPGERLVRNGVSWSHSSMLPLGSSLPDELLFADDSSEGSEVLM

[11] = target: Tyrosine-protein kinase ABL1 (Homo sapiens, UniProt P00519); test: Selectivity interaction (KinomeScan (DiscoverX)) EUB0000045b ABL1; settings: at 10 µM
[12] = system: Proto-oncogene tyrosine-protein kinase receptor Ret (Homo sapiens), P07949 [V804L]; test: (§1) Selectivity interaction (Ambit KINOMEscan and KiNATiv profiling in Jurkat cells) EUB0000090b RET; assay type: cell-based; settings: at 1 µM
[13] = system: Proto-oncogene tyrosine-protein kinase receptor Ret (Homo sapiens), P07949 [V804M]; test: as §1; assay type: cell-based; settings: at 1 µM
[14] = target: Proto-oncogene tyrosine-protein kinase receptor Ret (Homo sapiens, UniProt P07949); test: as §1; assay type: cell-based; settings: at 1 µM

Serine/threonine-protein kinase pim-1, sequence (P11309 whole entry, looked up): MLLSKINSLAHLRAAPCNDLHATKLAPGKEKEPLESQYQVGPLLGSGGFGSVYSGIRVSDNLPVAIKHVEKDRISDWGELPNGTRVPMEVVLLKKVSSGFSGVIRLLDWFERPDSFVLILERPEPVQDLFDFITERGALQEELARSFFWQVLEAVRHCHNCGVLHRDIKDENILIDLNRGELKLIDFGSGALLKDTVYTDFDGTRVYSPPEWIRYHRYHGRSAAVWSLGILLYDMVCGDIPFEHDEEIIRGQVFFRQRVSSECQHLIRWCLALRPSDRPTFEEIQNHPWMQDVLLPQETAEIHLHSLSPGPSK
Phosphatidylinositol 4,5-bisphosphate 3-kinase catalytic subunit gamma isoform (Homo sapiens), sequence (P48736 whole entry, looked up, canonical isoform): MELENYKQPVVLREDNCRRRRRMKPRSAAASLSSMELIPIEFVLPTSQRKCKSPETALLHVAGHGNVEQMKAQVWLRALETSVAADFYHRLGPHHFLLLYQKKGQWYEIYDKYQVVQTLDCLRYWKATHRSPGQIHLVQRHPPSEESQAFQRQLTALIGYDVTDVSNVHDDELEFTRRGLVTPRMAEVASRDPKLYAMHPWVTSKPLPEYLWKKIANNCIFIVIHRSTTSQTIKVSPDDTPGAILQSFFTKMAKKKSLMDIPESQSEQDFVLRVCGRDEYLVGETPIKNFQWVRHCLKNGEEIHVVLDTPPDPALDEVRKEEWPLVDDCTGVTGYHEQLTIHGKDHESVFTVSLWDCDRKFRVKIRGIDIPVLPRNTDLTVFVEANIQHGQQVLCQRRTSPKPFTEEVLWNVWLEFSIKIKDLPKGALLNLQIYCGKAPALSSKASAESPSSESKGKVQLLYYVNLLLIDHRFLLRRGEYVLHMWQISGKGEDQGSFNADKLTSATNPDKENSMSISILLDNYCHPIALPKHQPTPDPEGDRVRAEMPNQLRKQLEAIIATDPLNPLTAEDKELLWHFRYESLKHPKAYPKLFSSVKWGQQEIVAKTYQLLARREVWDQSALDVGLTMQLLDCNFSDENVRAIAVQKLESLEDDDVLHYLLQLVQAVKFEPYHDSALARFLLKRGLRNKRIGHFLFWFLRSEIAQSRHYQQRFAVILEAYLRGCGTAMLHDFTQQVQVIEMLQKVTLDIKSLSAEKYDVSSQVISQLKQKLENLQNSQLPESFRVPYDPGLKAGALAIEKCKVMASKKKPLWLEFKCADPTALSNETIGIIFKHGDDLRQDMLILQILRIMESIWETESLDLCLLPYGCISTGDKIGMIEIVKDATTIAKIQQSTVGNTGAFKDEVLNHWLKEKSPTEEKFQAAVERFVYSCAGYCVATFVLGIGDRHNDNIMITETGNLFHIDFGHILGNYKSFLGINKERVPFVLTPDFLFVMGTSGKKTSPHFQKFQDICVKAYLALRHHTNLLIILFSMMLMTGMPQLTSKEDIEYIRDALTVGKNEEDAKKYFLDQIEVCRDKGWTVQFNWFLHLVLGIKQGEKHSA
Macrophage-stimulating protein receptor, sequence (Q04912 25-304 limits assumed): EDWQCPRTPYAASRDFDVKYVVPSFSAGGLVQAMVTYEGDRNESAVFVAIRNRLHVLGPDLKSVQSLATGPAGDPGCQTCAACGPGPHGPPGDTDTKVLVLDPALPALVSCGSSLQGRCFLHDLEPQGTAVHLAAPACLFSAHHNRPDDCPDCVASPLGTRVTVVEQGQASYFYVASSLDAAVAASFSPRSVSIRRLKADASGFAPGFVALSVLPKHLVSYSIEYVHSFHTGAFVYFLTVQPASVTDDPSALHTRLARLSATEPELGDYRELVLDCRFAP
Macrophage-stimulating protein receptor, sequence (Q04912 310-1400 limits assumed): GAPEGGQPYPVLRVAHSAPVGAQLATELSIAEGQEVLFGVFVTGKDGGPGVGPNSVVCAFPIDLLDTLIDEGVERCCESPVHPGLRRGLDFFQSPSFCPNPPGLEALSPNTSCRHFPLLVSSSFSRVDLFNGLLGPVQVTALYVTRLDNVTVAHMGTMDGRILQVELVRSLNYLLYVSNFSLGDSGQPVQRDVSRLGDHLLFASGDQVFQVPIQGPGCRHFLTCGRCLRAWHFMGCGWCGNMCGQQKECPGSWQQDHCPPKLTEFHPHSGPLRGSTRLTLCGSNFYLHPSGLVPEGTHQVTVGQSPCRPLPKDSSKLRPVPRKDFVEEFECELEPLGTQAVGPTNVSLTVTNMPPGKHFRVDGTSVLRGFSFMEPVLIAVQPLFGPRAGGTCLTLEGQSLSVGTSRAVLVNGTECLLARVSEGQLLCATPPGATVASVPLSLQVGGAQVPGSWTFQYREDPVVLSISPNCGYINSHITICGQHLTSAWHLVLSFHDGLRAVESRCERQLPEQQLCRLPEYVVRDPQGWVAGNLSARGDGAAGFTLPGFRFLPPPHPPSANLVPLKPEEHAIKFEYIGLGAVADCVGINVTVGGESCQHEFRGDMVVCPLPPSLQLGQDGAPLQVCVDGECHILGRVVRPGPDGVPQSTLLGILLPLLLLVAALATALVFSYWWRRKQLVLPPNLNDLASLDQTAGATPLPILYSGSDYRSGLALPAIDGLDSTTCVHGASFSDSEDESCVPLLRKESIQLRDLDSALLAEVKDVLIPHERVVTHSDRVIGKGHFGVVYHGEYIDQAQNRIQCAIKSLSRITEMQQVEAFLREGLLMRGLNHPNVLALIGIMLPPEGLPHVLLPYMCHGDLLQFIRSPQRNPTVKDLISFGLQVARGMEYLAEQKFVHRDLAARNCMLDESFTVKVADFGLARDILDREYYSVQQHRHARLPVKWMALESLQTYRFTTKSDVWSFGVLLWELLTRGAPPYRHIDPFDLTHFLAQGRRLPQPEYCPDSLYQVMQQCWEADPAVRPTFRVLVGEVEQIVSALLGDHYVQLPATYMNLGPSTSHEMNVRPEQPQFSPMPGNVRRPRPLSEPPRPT
Cyclin-dependent kinase 18 (Homo sapiens), sequence (Q07002 whole entry): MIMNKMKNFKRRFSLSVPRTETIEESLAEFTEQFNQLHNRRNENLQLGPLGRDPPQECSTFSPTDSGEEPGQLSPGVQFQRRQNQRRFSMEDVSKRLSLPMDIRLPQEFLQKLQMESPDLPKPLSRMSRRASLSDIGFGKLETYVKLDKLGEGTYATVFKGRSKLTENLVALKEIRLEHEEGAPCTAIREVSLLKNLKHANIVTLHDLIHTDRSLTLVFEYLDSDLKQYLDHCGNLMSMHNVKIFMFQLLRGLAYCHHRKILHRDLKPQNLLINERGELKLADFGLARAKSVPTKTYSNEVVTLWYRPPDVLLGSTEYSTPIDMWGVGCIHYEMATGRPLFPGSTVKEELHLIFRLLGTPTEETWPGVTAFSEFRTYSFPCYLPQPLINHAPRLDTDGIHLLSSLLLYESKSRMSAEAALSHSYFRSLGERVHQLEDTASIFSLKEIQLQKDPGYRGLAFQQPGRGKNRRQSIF
Casein kinase II subunit alpha' (Homo sapiens), sequence (P19784 whole entry, looked up, canonical isoform): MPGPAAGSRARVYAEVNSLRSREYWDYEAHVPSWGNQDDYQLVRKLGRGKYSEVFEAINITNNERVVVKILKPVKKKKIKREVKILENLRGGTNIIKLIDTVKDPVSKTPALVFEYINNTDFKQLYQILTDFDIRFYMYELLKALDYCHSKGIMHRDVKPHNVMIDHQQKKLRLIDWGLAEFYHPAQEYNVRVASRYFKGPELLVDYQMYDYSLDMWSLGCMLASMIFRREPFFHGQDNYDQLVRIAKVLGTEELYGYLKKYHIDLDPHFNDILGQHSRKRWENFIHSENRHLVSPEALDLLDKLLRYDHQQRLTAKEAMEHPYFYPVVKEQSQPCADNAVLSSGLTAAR
Platelet-derived growth factor receptor alpha, sequence (P16234 whole entry): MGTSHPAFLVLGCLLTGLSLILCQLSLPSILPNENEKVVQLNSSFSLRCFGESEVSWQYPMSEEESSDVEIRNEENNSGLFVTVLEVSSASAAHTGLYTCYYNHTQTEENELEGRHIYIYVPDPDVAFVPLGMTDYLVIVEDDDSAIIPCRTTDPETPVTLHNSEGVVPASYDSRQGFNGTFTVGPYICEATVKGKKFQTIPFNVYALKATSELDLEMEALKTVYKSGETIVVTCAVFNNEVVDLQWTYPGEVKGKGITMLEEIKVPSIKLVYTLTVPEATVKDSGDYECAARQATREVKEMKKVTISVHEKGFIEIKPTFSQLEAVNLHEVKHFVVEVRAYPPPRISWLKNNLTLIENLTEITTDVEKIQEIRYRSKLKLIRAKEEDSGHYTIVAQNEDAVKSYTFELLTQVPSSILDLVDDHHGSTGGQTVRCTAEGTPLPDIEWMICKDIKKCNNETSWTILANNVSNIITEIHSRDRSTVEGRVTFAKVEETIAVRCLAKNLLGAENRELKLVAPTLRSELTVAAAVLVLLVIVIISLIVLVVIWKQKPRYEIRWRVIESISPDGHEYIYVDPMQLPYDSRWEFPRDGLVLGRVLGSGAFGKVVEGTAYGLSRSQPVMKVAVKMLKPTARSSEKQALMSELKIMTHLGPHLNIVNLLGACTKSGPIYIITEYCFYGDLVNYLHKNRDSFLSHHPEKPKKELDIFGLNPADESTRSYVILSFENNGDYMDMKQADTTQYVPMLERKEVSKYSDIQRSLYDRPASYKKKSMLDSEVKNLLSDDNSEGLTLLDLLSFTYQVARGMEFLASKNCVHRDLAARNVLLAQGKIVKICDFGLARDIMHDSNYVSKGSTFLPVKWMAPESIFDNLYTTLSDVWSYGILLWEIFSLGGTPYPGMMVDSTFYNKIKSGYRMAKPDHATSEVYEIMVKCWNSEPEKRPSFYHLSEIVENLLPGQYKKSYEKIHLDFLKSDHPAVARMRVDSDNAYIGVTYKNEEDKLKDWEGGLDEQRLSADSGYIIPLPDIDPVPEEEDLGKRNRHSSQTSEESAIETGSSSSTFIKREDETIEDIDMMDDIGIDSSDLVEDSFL

Question: For CCC(=O)N1CCN(c2ccc(-n3c(=O)ccc4cnc5ccc(-c6cnc7ccccc7c6)cc5c43)cc2C(F)(F)F)CC1, which % of control [1] is on record?
Answer: 55%

Question: With CN(C)CCOc1ccc(-c2nc(-c3ccncc3)c(-c3ccc4c(c3)CC/C4=N\O)[nH]2)cc1 as the compound, how does the % of control [2] read?
Answer: 29%

Question: With C=CC(=O)Nc1cccc(C(=O)Nc2ccc(Nc3cc(-c4[nH]c(SC)nc4C)ccn3)cc2)c1 as the compound, how does the % of control ([3]; at 1 µM) read?
Answer: 87%

Question: What about the % of control ([3]; at 5 µM) of the same compound?
Answer: 67%

Question: For CC[C@@H]1[C@H](F)C(=O)N[C@@H]1COc1nccc2cc(C(N)=O)c(OC)cc12 [ZIMLOVISERTIB], which % of inhibition [4] is on record?
Answer: -1.69%

Question: What does the source list for CNC(=O)Nc1ccc(-c2nc(N3CC4CCC(C3)O4)c3cnn(C4CCC5(CC4)OCCO5)c3n2)cc1?
Answer: % of control [5]: 100%; % of control [6]: 100%

Question: COc1cc(Nc2nc(C)cc(-c3cnn4nc(OC)ccc34)n2)cc(C(F)(F)F)c1 was tested. Which % of control [7] did it give?
Answer: 59%

Question: What about the % of control [8] of the same compound?
Answer: 93%

Question: Which % of control [9] does the source give for Cc1cc(F)c(C(=O)Nc2cccc(-c3nncn3C(C)C)n2)cc1-n1cnc(C2CC2)c1 here?
Answer: 91%

Question: Which % of control [10] does the source give for COCC(=O)NC/C=C/c1ccc2ncnc(Nc3ccc(Oc4ccc(C)nc4)c(C)c3)c2c1 [CP-724714] here?
Answer: 97%

Question: Which % of control [11] does the source give for C=CC(=O)Nc1cc(-n2c(=O)ccc3cnc4ccc(-c5ccc(NS(C)(=O)=O)cc5)cc4c32)ccc1C here?
Answer: 79%

Question: With CN(C)C/C=C/C(=O)Nc1ccc(C(=O)N2CCCC(Nc3ncc(Cl)c(-c4c[nH]c5ccccc45)n3)C2)cc1 (stereo not given) as the compound, how does the % of control [12] read?
Answer: 71%

Question: What about the % of control [13] of the same compound?
Answer: 89%

Question: What about the % of control [14] of the same compound?
Answer: 90%
